According to patent US8048825B2, “Haloalkylsulfonanilide derivatives or salt thereof, herbicide comprising the derivatives as active ingredient, and use of the herbicide” (Nihon Nohyaku Co., Ltd., priority 2006, dated 2011):

Assays:
Assay type in all cases: in vivo
Scirpus juncoides [1] = test: Herbicidal efficacy on paddy field weeds of pre-emergence stage (Pre), Test Example 1; settings: 1000 g/ha as active ingredient, examined after 21 days
In short: (§1)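 Clay-loam pots sown with Scirpus juncoides, covered with soil containing Lindernia procumbens seed, flooded to 5 cm. Next day formulated compound applied dropwise to water at 1000 g/ha a.i. Greenhouse-grown; growth inhibition versus untreated scored 0–5 after 21 days.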

Lindernia procumbens [2] = test: as above; settings: 1000 g/ha as active ingredient, examined after 21 days
In short: as §1

Echinochloa crus-galli = test: Herbicidal effect on paddy field weeds of post-emergence stage (Post), Test Example 2; settings: one-leaf stage, 1000 g/ha as active ingredient, examined after 21 days
In short: (§2)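 Scirpus juncoides and Echinochloa crus-galli sown in clay loam, with Lindernia procumbens seed in the soil cover, under 5 cm flooding in greenhouse. At one-leaf stage, 1000 g/ha active ingredient applied to pot water. Efficacy scored visually 0–5 against untreated plants at 21 days after treatment.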

Scirpus juncoides [3] = test: as above; settings: one-leaf stage, 1000 g/ha as active ingredient, examined after 21 days
In short: as §2

Lindernia procumbens [4] = test: as above; settings: one-leaf stage, 1000 g/ha as active ingredient, examined after 21 days
In short: as §2

## CC1(C)CCN(Cc2ccccc2NS(=O)(=O)C(F)(F)F)C(=S)O1 [Compound 1-58]
Scirpus juncoides [1]
  Scirpus juncoides pre (herbicidal effect): 4 (90%-99% herbicidal effect, phytotoxicity)
Lindernia procumbens [2]
  Lindernia procumbens pre (herbicidal effect): 4 (90%-99% herbicidal effect, phytotoxicity)
Echinochloa crus-galli
  Echinochloa crus-galli post (herbicidal effect): 4 (90%-99% herbicidal effect, phytotoxicity)
Scirpus juncoides [3]
  Scirpus juncoides post (herbicidal effect): 4 (90%-99% herbicidal effect, phytotoxicity)
Lindernia procumbens [4]
  Lindernia procumbens post (herbicidal effect): 4 (90%-99% herbicidal effect, phytotoxicity)

## CC(C)COC(=O)N(c1ccccc1CN1CCC(C)(C)OC1=S)S(=O)(=O)C(F)(F)F [Compound 1-63]
Scirpus juncoides [1]
  Scirpus juncoides pre (herbicidal effect): 4 (90%-99% herbicidal effect, phytotoxicity)
Lindernia procumbens [2]
  Lindernia procumbens pre (herbicidal effect): 4 (90%-99% herbicidal effect, phytotoxicity)
Echinochloa crus-galli
  Echinochloa crus-galli post (herbicidal effect): 4 (90%-99% herbicidal effect, phytotoxicity)
Scirpus juncoides [3]
  Scirpus juncoides post (herbicidal effect): 4 (90%-99% herbicidal effect, phytotoxicity)
Lindernia procumbens [4]
  Lindernia procumbens post (herbicidal effect): 4 (90%-99% herbicidal effect, phytotoxicity)

## CC(C)(C)COC(=O)N(c1ccccc1CN1CCC(C)(C)OC1=S)S(=O)(=O)C(F)(F)F [Compound 1-64]
Scirpus juncoides [1]
  Scirpus juncoides pre (herbicidal effect): 4 (90%-99% herbicidal effect, phytotoxicity)
Lindernia procumbens [2]
  Lindernia procumbens pre (herbicidal effect): 4 (90%-99% herbicidal effect, phytotoxicity)
Echinochloa crus-galli
  Echinochloa crus-galli post (herbicidal effect): 4 (90%-99% herbicidal effect, phytotoxicity)
Scirpus juncoides [3]
  Scirpus juncoides post (herbicidal effect): 4 (90%-99% herbicidal effect, phytotoxicity)
Lindernia procumbens [4]
  Lindernia procumbens post (herbicidal effect): 4 (90%-99% herbicidal effect, phytotoxicity)

## CCC1(C)CCN(Cc2ccccc2NS(=O)(=O)C(F)(F)F)C(=O)O1 (stereo not shown) [Compound 1-69]
Scirpus juncoides [1]
  Scirpus juncoides pre (herbicidal effect): 4 (90%-99% herbicidal effect, phytotoxicity)
Lindernia procumbens [2]
  Lindernia procumbens pre (herbicidal effect): 4 (90%-99% herbicidal effect, phytotoxicity)
Echinochloa crus-galli
  Echinochloa crus-galli post (herbicidal effect): 4 (90%-99% herbicidal effect, phytotoxicity)
Scirpus juncoides [3]
  Scirpus juncoides post (herbicidal effect): 4 (90%-99% herbicidal effect, phytotoxicity)
Lindernia procumbens [4]
  Lindernia procumbens post (herbicidal effect): 4 (90%-99% herbicidal effect, phytotoxicity)

## CCOC(=O)N(c1ccccc1CN1CCC(C)(CC)OC1=O)S(=O)(=O)C(F)(F)F (stereo not shown) [Compound 1-71]
Scirpus juncoides [1]
  Scirpus juncoides pre (herbicidal effect): 4 (90%-99% herbicidal effect, phytotoxicity)
Lindernia procumbens [2]
  Lindernia procumbens pre (herbicidal effect): 4 (90%-99% herbicidal effect, phytotoxicity)
Echinochloa crus-galli
  Echinochloa crus-galli post (herbicidal effect): 4 (90%-99% herbicidal effect, phytotoxicity)
Scirpus juncoides [3]
  Scirpus juncoides post (herbicidal effect): 4 (90%-99% herbicidal effect, phytotoxicity)
Lindernia procumbens [4]
  Lindernia procumbens post (herbicidal effect): 4 (90%-99% herbicidal effect, phytotoxicity)

## CCC1(C)CCN(Cc2ccccc2N(C(=O)OCC(C)C)S(=O)(=O)C(F)(F)F)C(=O)O1 (stereo not shown) [Compound 1-74]
Scirpus juncoides [1]
  Scirpus juncoides pre (herbicidal effect): 4 (90%-99% herbicidal effect, phytotoxicity)
Lindernia procumbens [2]
  Lindernia procumbens pre (herbicidal effect): 4 (90%-99% herbicidal effect, phytotoxicity)
Echinochloa crus-galli
  Echinochloa crus-galli post (herbicidal effect): 4 (90%-99% herbicidal effect, phytotoxicity)
Scirpus juncoides [3]
  Scirpus juncoides post (herbicidal effect): 4 (90%-99% herbicidal effect, phytotoxicity)
Lindernia procumbens [4]
  Lindernia procumbens post (herbicidal effect): 4 (90%-99% herbicidal effect, phytotoxicity)

## CCC1(C)CCN(Cc2ccccc2N(C(=O)OCC(C)(C)C)S(=O)(=O)C(F)(F)F)C(=O)O1 (stereo not shown) [Compound 1-75]
Scirpus juncoides [1]
  Scirpus juncoides pre (herbicidal effect): 4 (90%-99% herbicidal effect, phytotoxicity)
Lindernia procumbens [2]
  Lindernia procumbens pre (herbicidal effect): 4 (90%-99% herbicidal effect, phytotoxicity)
Echinochloa crus-galli
  Echinochloa crus-galli post (herbicidal effect): 4 (90%-99% herbicidal effect, phytotoxicity)
Scirpus juncoides [3]
  Scirpus juncoides post (herbicidal effect): 4 (90%-99% herbicidal effect, phytotoxicity)
Lindernia procumbens [4]
  Lindernia procumbens post (herbicidal effect): 4 (90%-99% herbicidal effect, phytotoxicity)

## COC(=O)N(c1ccccc1CN1CCC(C)(C(F)(F)F)OC1=O)S(=O)(=O)C(F)(F)F (stereo not shown) [Compound 1-81]
Scirpus juncoides [1]
  Scirpus juncoides pre (herbicidal effect): 4 (90%-99% herbicidal effect, phytotoxicity)
Lindernia procumbens [2]
  Lindernia procumbens pre (herbicidal effect): 5 (100% herbicidal effect, phytotoxicity)
Echinochloa crus-galli
  Echinochloa crus-galli post (herbicidal effect): 4 (90%-99% herbicidal effect, phytotoxicity)
Scirpus juncoides [3]
  Scirpus juncoides post (herbicidal effect): 4 (90%-99% herbicidal effect, phytotoxicity)
Lindernia procumbens [4]
  Lindernia procumbens post (herbicidal effect): 5 (100% herbicidal effect, phytotoxicity)

## CCOC(=O)N(c1ccccc1CN1CCC(C)(C(F)(F)F)OC1=O)S(=O)(=O)C(F)(F)F (stereo not shown) [Compound 1-82]
Scirpus juncoides [1]
  Scirpus juncoides pre (herbicidal effect): 5 (100% herbicidal effect, phytotoxicity)
Lindernia procumbens [2]
  Lindernia procumbens pre (herbicidal effect): 5 (100% herbicidal effect, phytotoxicity)
Echinochloa crus-galli
  Echinochloa crus-galli post (herbicidal effect): 4 (90%-99% herbicidal effect, phytotoxicity)
Scirpus juncoides [3]
  Scirpus juncoides post (herbicidal effect): 4 (90%-99% herbicidal effect, phytotoxicity)
Lindernia procumbens [4]
  Lindernia procumbens post (herbicidal effect): 5 (100% herbicidal effect, phytotoxicity)

## CC(C)(C)COC(=O)N(c1ccccc1CN1CCC(C)(C(F)(F)F)OC1=O)S(=O)(=O)C(F)(F)F (stereo not shown) [Compound 1-86]
Scirpus juncoides [1]
  Scirpus juncoides pre (herbicidal effect): 4 (90%-99% herbicidal effect, phytotoxicity)
Lindernia procumbens [2]
  Lindernia procumbens pre (herbicidal effect): 4 (90%-99% herbicidal effect, phytotoxicity)
Echinochloa crus-galli
  Echinochloa crus-galli post (herbicidal effect): 4 (90%-99% herbicidal effect, phytotoxicity)
Scirpus juncoides [3]
  Scirpus juncoides post (herbicidal effect): 4 (90%-99% herbicidal effect, phytotoxicity)
Lindernia procumbens [4]
  Lindernia procumbens post (herbicidal effect): 4 (90%-99% herbicidal effect, phytotoxicity)

## CCC1(C(F)(F)F)CCN(Cc2ccccc2NS(=O)(=O)C(F)(F)F)C(=O)O1 (stereo not shown) [Compound 1-91]
Scirpus juncoides [1]
  Scirpus juncoides pre (herbicidal effect): 4 (90%-99% herbicidal effect, phytotoxicity)
Lindernia procumbens [2]
  Lindernia procumbens pre (herbicidal effect): 5 (100% herbicidal effect, phytotoxicity)
Echinochloa crus-galli
  Echinochloa crus-galli post (herbicidal effect): 4 (90%-99% herbicidal effect, phytotoxicity)
Scirpus juncoides [3]
  Scirpus juncoides post (herbicidal effect): 4 (90%-99% herbicidal effect, phytotoxicity)
Lindernia procumbens [4]
  Lindernia procumbens post (herbicidal effect): 5 (100% herbicidal effect, phytotoxicity)

## CCC1(C(F)(F)F)CCN(Cc2ccccc2N(C(=O)OC)S(=O)(=O)C(F)(F)F)C(=O)O1 (stereo not shown) [Compound 1-92]
Scirpus juncoides [1]
  Scirpus juncoides pre (herbicidal effect): 4 (90%-99% herbicidal effect, phytotoxicity)
Lindernia procumbens [2]
  Lindernia procumbens pre (herbicidal effect): 5 (100% herbicidal effect, phytotoxicity)
Echinochloa crus-galli
  Echinochloa crus-galli post (herbicidal effect): 4 (90%-99% herbicidal effect, phytotoxicity)
Scirpus juncoides [3]
  Scirpus juncoides post (herbicidal effect): 4 (90%-99% herbicidal effect, phytotoxicity)
Lindernia procumbens [4]
  Lindernia procumbens post (herbicidal effect): 5 (100% herbicidal effect, phytotoxicity)

## CCOC(=O)N(c1ccccc1CN1CCC(CC)(C(F)(F)F)OC1=O)S(=O)(=O)C(F)(F)F (stereo not shown) [Compound 1-93]
Scirpus juncoides [1]
  Scirpus juncoides pre (herbicidal effect): 5 (100% herbicidal effect, phytotoxicity)
Lindernia procumbens [2]
  Lindernia procumbens pre (herbicidal effect): 5 (100% herbicidal effect, phytotoxicity)
Echinochloa crus-galli
  Echinochloa crus-galli post (herbicidal effect): 4 (90%-99% herbicidal effect, phytotoxicity)
Scirpus juncoides [3]
  Scirpus juncoides post (herbicidal effect): 4 (90%-99% herbicidal effect, phytotoxicity)
Lindernia procumbens [4]
  Lindernia procumbens post (herbicidal effect): 5 (100% herbicidal effect, phytotoxicity)

## CCC1(C(F)(F)F)CCN(Cc2ccccc2N(C(=O)OCC(C)C)S(=O)(=O)C(F)(F)F)C(=O)O1 (stereo not shown) [Compound 1-96]
Scirpus juncoides [1]
  Scirpus juncoides pre (herbicidal effect): 4 (90%-99% herbicidal effect, phytotoxicity)
Lindernia procumbens [2]
  Lindernia procumbens pre (herbicidal effect): 5 (100% herbicidal effect, phytotoxicity)
Echinochloa crus-galli
  Echinochloa crus-galli post (herbicidal effect): 4 (90%-99% herbicidal effect, phytotoxicity)
Scirpus juncoides [3]
  Scirpus juncoides post (herbicidal effect): 4 (90%-99% herbicidal effect, phytotoxicity)
Lindernia procumbens [4]
  Lindernia procumbens post (herbicidal effect): 5 (100% herbicidal effect, phytotoxicity)
